Source: US20180142537A1, “WATER INJECTION SYSTEM COMPRISING BIOFILM SENSOR(S)” (TOTAL SA, priority 2015, published 2018)

Experiments:
[1] = tested on: biofilm; test: Detection and removal of biofilm by batch or continuous injection of a biocide, seawater channels with ALVIM electrochemical biofilm probe; conditions: Mediterranean seawater; for biofilm probe signal after batch injection of biocide: batch injections at biofilm phases 900 mV, 1100 mV and 1200 mV, FIG. 3
Protocol: Tests of biofilm detection were carried out in a pilot plant continuously fed with Mediterranean seawater (2 m deep, 50 m from the coast). The experimental conditions are favorable to the biofilm growth: laminar flowing and coastal seawater rich in microorganisms and suspended solids (Silt Density Index SDI5min=10-18).
Tests were carried out in a tank divided in 6 parallel channels with equal dimensions (0.76 m-long, 0.1 m-deep and 0.07 m-wide per channel). Each channel was continuously fed with from 10 L/h to 40 L/h of seawater pre-filtered with a multimedia filter (40 μm). The speed of water flowing in the channels ranges from 0.0003 to 0.0013 m/s.
Several channels are equipped with an electrochemical biofilm sensor whose working electrode is immersed within the flowing water phase. The electrochemical biofilm sensor is provided by ALVIM Srl. This biofilm sensor is able to detect the electrochemical activity of a biofilm (Faimali et al., 2010 and Pavanello et al., 2011). This activity is proportional to the surface covered with biofilm. Thus, when a biofilm appears on the flat surface of the working electrode, the electrical signal transmitted by the device instantly increases. When the working electrode is immersed in seawater, its potential is stable (around 600 mV). Whenever the working electrode detects the biofilm, its potential increases and reaches a potential threshold which relate to a given maximum value of the probe (signal saturation).
The following experiment has been performed on two parallel channels of the tank. Each one is equipped with an ALVIM probe. Two biocides were tested: sodium hypochlorite (ClO^−Na^+) and rocideDB (DBNPA). Batch injections of biocides have been carried out at different development phases of the biofilm (900 mV, 1100 mV and 1200 mV) in order to evaluate the resistance of the biofilm as a function of its maturation time.

[2] = tested on: biofilm; test: Biofilm growth upstream and downstream an ultrafiltration unit, with sodium hypochlorite injection; conditions: 2 ppm injected at pilot inlet, upstream of the ultrafiltration module; two injections; FIG. 5
Source text: A second series of tests has been carried out to study the efficiency of inline monitoring upstream and downstream an ultrafiltration unit (pore size 10-50 nm). This type of porous membranes is considered as being able to retain all microorganisms present in natural water.
Ultrafiltration modules are used according to the set up represented at FIG. 4. The UF modules are continuously fed with pre-filtered Mediterranean seawater (40 μm multimedia filter F, 2 m deep, 50 m from the coast, laminar flowing, Silt Density Index SDI5min=10-18). The flow rates of the UF modules are: 3000-4000 L/h and the recovery is around 80%.
Two probes are positioned at the following locations of the pilot: • Probe 1: at the feedwater point of the ultrafiltration module (0.4-0.6 m/s);
Probe 2: downstream the ultrafiltration module (flowing velocity=0.3-0.5 m/s).
A dose of sodium hypochlorite is injected at various times during the experiment at the inlet of the pilot (upstream probe 1) as shown on FIG. 5.

Compound	biofilm probe signal after batch injection of biocide [1]	biofilm growth under continuous biocide injection ([1]; continuous injection of 1 mg/L)	signal of probe 1 (feedwater) after biocide injection [2]
N#CC(Br)(Br)C(N)=O [DBNPA, 2,2-dibromo-3-nitrilopropionamide]	brings the signal back to the baseline		
OCl [sodium hypochlorite]	brings the signal back to the baseline	no biofilm growth was detected	goes down rapidly to the baseline
